Inconclusive results and toxic doses are left out. No stated cut-off is given here; in the data, active means T/C of 150% or more; inactive means T/C below 125%.
System: L1210 leukemia ip in BDF1 mice, survival T/C
Assay: NCI In Vivo Anticancer Drug Screen. Data for tumor model L1210 Leukemia (intraperitoneal) in B6D2F1 (BDF1) mice
Conditions: endpoint: mean survival time, higher = longer survival
Outline: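 Antitumor effect is assessed in tumor-bearing animals. Survival in the compound arm is compared with a vehicle-dosed control arm and expressed as their quotient.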

[1] = dose: 100.0 mg/kg/injection, schedule: Q01DX001 (ip), vehicle: carboxymethylcellulose (CMC)
[2] = dose: 200.0 mg/kg/injection, schedule: Q01DX001 (ip), vehicle: carboxymethylcellulose (CMC)
[3] = dose: 100.0 mg/kg/injection, schedule: Q04DX003 (ip), vehicle: Klucel (hydroxypropylcellulose) (HPC)
[4] = dose: 200.0 mg/kg/injection, schedule: Q04DX003 (ip), vehicle: Klucel (hydroxypropylcellulose) (HPC)
[5] = dose: 400.0 mg/kg/injection, schedule: Q04DX003 (ip), vehicle: Klucel (hydroxypropylcellulose) (HPC)
[6] = dose: 100.0 mg/kg/injection, schedule: Q01DX009 (ip), vehicle: saline with Tween-80
[7] = dose: 200.0 mg/kg/injection, schedule: Q01DX009 (ip), vehicle: saline with Tween-80

Measured: T/C

CNC(=S)N/N=C/C(CO)=N\NC(=S)NC
inactive: dose: 50.0 mg/kg/injection, schedule: Q01DX001 (ip), vehicle: carboxymethylcellulose (CMC) 101 % of control | [1] 103 % of control | [2] 112 % of control | dose: 400.0 mg/kg/injection, schedule: Q01DX001 (ip), vehicle: carboxymethylcellulose (CMC) 97 % of control

Cc1ccc(S(=O)(=O)N(C)c2cc(Cl)c(C(=O)O)c(Cl)c2)cc1
inactive: [3] 96 % of control | [4] 105 % of control | [5] 97 % of control

OC(C1CC2CCC1C2)(C1CC2CCC1C2)C1CC2CCC1C2 (stereo not drawn)
inactive: [6] 92 % of control | [3] 94 % of control | [7] 97 % of control | [4] 96 % of control | dose: 400.0 mg/kg/injection, schedule: Q01DX009 (ip), vehicle: saline with Tween-80 90 % of control | [5] 97 % of control

Cc1nc(NN)ccc1[N+](=O)[O-]
inactive: dose: 100.0 mg/kg/injection, schedule: Q04DX002 (ip), vehicle: Klucel (hydroxypropylcellulose) (HPC) 96 % of control | dose: 200.0 mg/kg/injection, schedule: Q04DX002 (ip), vehicle: Klucel (hydroxypropylcellulose) (HPC) 90 % of control | dose: 400.0 mg/kg/injection, schedule: Q04DX002 (ip), vehicle: Klucel (hydroxypropylcellulose) (HPC) 96 % of control

CCCCCCCCCCCCCCCN(CCCl)CCCl
inactive: [1] 93 % of control | [2] 96 % of control

O=C(CNCc1ccccc1)NC(Cc1ccccc1)c1ccccc1 (stereo not drawn)
inactive: [3] 96 % of control | dose: 100.0 mg/kg/injection, schedule: Q04DX003 (ip), vehicle: saline with Tween-80 101 % of control | [4] 93 % of control | dose: 200.0 mg/kg/injection, schedule: Q04DX003 (ip), vehicle: saline with Tween-80 94 % of control | [5] 94 % of control | dose: 400.0 mg/kg/injection, schedule: Q04DX003 (ip), vehicle: saline with Tween-80 94 % of control

CC(O)CSc1ccccc1 (stereo not drawn)
inactive: [6] 95 % of control | [7] 88 % of control

S=C([S-])N1CCCCC1.S=C([S-])N1CCCCC1.[Zn]
inactive: dose: 18.8 mg/kg/injection, schedule: Q04DX003 (ip), vehicle: saline 92 % of control | dose: 37.5 mg/kg/injection, schedule: Q04DX003 (ip), vehicle: saline 92 % of control | dose: 75.0 mg/kg/injection, schedule: Q01DX001 (ip), vehicle: saline 88 % of control | dose: 75.0 mg/kg/injection, schedule: Q04DX003 (ip), vehicle: saline 96 % of control

CC(=O)NCCCOc1ccc([N+](=O)[O-])cc1
inactive: [3] 101 % of control | [4] 91 % of control | [5] 92 % of control

Reference: PubChem BioAssay AID248 (DTP/NCI, 2004)
